Assay in all cases: NCI-60 cell line screen, 48 h
The subject of assay [1] is MDA-N.
The subject of assay [2] is OVCAR-4 ovarian.
Assay [3] concerns PC-3 prostate.
Assay [4] relates to HS 578T breast.
Assay [5] has as its system OVCAR-8 ovarian.
For assay [6], the system named is A498 renal.
The test system of assay [7] is M14 melanoma.
Assay [8] relates to UACC-62 melanoma.
Assay [9] has as its system SK-OV-3 ovarian.
Assay [10] has as its system U251 CNS.
In assay [11] the test system is K-562 leukemia.
Assay [12] concerns UO-31 renal.

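1) Cells in 96-well plates. 2) Compound, 48 h, 5 concentrations. 3) Linear interpolation between surrounding doses. 4) Unreached endpoint = highest concentration. TGI marks complete inhibition of growth.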

In the case of `NC12c3c4cccc3Oc3cccc(c31)Oc1cccc(c12)O4`, the TGI in assay [1], in assay [2], in assay [3], in assay [4], in [5] and in [6] was more than 50 µM in each case. The TGI in [7], in [8], in assay [9], in assay [10], in [11] and in [12] was more than 50 µM each time.

With `CC(=O)NC1C(OCC(=O)NC(C)C(=O)NC(CCC(=O)NCCCCCNc2ccc([N+](=O)[O-])c3[nH]c4ccccc4c(=O)c23)C(N)=O)C(O)C(CO)OC1(C)OCc1ccccc1` (stereo not given), the TGI in [1], in [2], in assay [3], in [4], in assay [5] and in assay [6] was more than 50 µM in each case. Further, the TGI in assay [7], in assay [8], in [9], in assay [10], in assay [11] and in [12] was more than 50 µM in each case.

As to `N=C(/C=C/c1ccc(-c2cn3cc(/C=C/C(=N)N4CCOCC4)ccc3n2)cc1)N1CCOCC1`, the TGI in [1], in [2], in [3], in assay [4], in assay [5] and in [6] was more than 100 µM throughout. Besides, the TGI in assay [7], in assay [8], in [9], in [10], in [11] and in [12] was more than 100 µM throughout.

In the case of `CCOC(=O)C1(C(=O)OCC)C[C@H]2CON=C2[C@@H]1c1ccc(C(F)(F)F)cc1`, the TGI in assay [1] was more than 100 µM; in assay [2] it was 61.4 µM; in assay [3], more than 100 µM; in assay [4] it was more than 100 µM; in assay [5] it was more than 100 µM; in assay [6], 99.3 µM. Further, the TGI is more than 100 µM in assay [7]; more than 100 µM in assay [8]; more than 100 µM in assay [9]; more than 100 µM in [10]; more than 100 µM in assay [11]; 27.5 µM in assay [12].

With `CCOC(=O)Nc1ccc(S(=O)(=O)Nc2ccc(Br)cc2)cc1`, the TGI is more than 100 µM in [1]; 57.1 µM in [2]; more than 100 µM in [3]; more than 100 µM in assay [4]; 68.4 µM in assay [5]; 48.4 µM in [6]. Further, the TGI was more than 100 µM in [7]; more than 100 µM in assay [8]; more than 100 µM in assay [9]; more than 100 µM in [10]; 34.4 µM in assay [11]; more than 100 µM in assay [12].

Regarding `CCC1=C(C)C2=NC1=CC1=NC(=C(CC)/C1=C/O)C=C1N=C3C(=C1C)C(=O)C(C(=O)OC)C3=C1NC(=C2)C(C)C1CCC(=O)OC` (stereo not given), the TGI in [1], in [2], in assay [3], in assay [4], in assay [5] and in [6] was more than 100 µM each time. Further, the TGI in [7], in assay [8], in assay [9], in assay [10], in assay [11] and in [12] was more than 100 µM throughout.

Consider `c1ccc(COc2nc3ccc(C45CC6CC(CC(C6)C4)C5)cc3[nH]2)cc1`, for which the TGI in assay [1] is 97 µM; in assay [2], more than 100 µM; in assay [3], more than 100 µM; in assay [4], more than 75.7 µM; in assay [5], more than 100 µM; in assay [6], more than 100 µM. The TGI in [7] is 98.4 µM; in assay [8], more than 100 µM; in assay [9], more than 100 µM; in assay [10], more than 78.5 µM; in assay [11], more than 100 µM; in assay [12] it was more than 64.7 µM.

On to `Cc1cc(SCC(=O)c2ccc(Br)cc2)cc(C)[o+]1`, for which the TGI in [1] was more than 100 µM; in assay [2], 83.7 µM; in [3] it was more than 100 µM; in [4], more than 100 µM; in [5], more than 100 µM; in [6], 81.6 µM. Also, the TGI in [7] was 79.1 µM; in [8], more than 100 µM; in assay [9] it was more than 100 µM; in assay [10], 90 µM; in assay [11], 74.9 µM; in [12], 83.9 µM.

Take `COc1ccc2c(c1)CC[C@@H]1C2CC[C@]2(C)OC(=O)CCC12` (stereo not given in full): the TGI in assay [1] is 62.1 µM; in assay [2] it was 28.1 µM; in assay [3], 61.1 µM; in assay [4], 60.6 µM; in [5], 28.4 µM; in [6] it was more than 100 µM. The TGI in assay [7] is 36 µM; in [8] it was more than 100 µM; in [9], more than 100 µM; in assay [10], 21 µM; in assay [11] it was more than 100 µM; in assay [12], 48.5 µM.

For `CC(=O)c1ccc2c(c1)CC1(C2)Cc2cc3c(cc2C1)C(=O)CC3` (stereo not given), the TGI is 0.492 µM in assay [1]; more than 73.6 µM in [2]; 17.8 µM in assay [3]; more than 69.2 µM in [4]; 19.5 µM in assay [5]; 4.22 µM in assay [6]. The TGI in assay [7] was 17.6 µM; in [8], 28.7 µM; in assay [9], more than 66.1 µM; in assay [10] it was 34 µM; in [11] it was 2.32 µM; in assay [12] it was 66.9 µM.

The values above are taken from PubChem BioAssay (NCI).
